In data set [1] the test system is trypomastigote forms of T. cruzi (Y strain). Kind of data set: Trypanocidal activity on bloodstream trypomastigotes. To be noted: for EC50: Trypanosoma cruzi, bloodstream trypomastigotes, Y strain, 24 h at 37 °C. It counts as cell-based, Trypanosoma cruzi. The protocol: (§1) Bloodstream trypomastigote forms (BT) of the Y strain were obtained from infected albino Swiss mice at the peak of parasitemia, isolated by differential centrifugation and resuspended in DMEM to a parasite concentration of 10^7 cells/mL in the presence of 10% of mouse blood. This suspension (100 µL) was added in the same volume of 13 (a–d) and 14 (a–d) previously prepared at twice the desired final concentrations.

For data set [2], the system named is T. cruzi. Kind of data set: Trypanocidal in vitro phenotypic screening, overall outcome. It counts as cell-based, Trypanosoma cruzi. The note with it: summarized outcome. The protocol: as §1
(§2) Tissue culture-derived trypomastigotes (Tulahuen strain expressing the E. coli β-galactosidase gene) were maintained in L929 cell lines and collected from the supernatant after 96 h of parasite infection, following previously established protocols. Briefly, after 24 h of L929 platting (4 × 10^3 cells/well), the cultures were incubated with trypomastigotes (10:1 parasite/host cell ratio) for 2 h at 37 °C. Then, the cell cultures were rinsed to remove non-internalized parasites and then further incubated for 24 h at 37 °C. Then the infected cultures were followed using two sequential protocols. […] After this period, 50 µL chlorophenol red glycoside (500 µM) in 0.5% Nonidet P40 was added to each well and the plate was incubated for more than 18 h at 37 °C, after which the absorbance was measured at 570 nm. Then, the compounds were next evaluated using dose–response assays in which Tulahuen-infected-L929 cells were exposed to different non-toxic concentrations of each compound (0–50 µM) and then after 96 h of incubation the same procedure was conducted as above reported. Controls with untreated and Bz-treated cells are run in parallel. The results were expressed as the percent difference in the reduction between treated and untreated cells.

Data set [3] concerns P. falciparum parasites (W2 clone) chloroquine-resistant. Nature of the data set: Antiplasmodial activity, anti-HRPII assay. It counts as cell-based, Plasmodium falciparum. To be noted: for SI: LC50 (HepG2)/EC50 (P. falciparum); for EC50: Plasmodium falciparum, W2, 24 h; for Antiplasmodial Activity: summarized outcome. From the text: P. falciparum W2 clone was maintained in continuous culture as previously described. […] Prior to testing, the ring-stage parasites were synchronized using sorbitol.
The test quantification was read at 450 nm on a spectrophotometer (SpectraMax340PC384, Molecular Devices Sunnyvale, CA, USA), and the drug activity was expressed as the half-maximal inhibitory concentration (EC50) compared to the drug-free controls using the curve-fitting software Origin 8.0 (OriginLab Corporation, Northampton, MA, USA).

Data set [4] is described as follows: in vitro. The format is cell-based. To be noted: mouse. As to the method: Primary cultures of cardiac cells (CC) were obtained as reported in [50]. The cultures were sustained in Dulbecco’s modified Eagle’s medium (DMEM) supplemented with 10% horse serum, 5% fetal bovine serum (FBS), 2.5 mM CaCl2, 1 mM L-glutamine, and 2% chicken embryo extract. Cell cultures were maintained at 37 °C in an atmosphere of 5% CO2, and assays were run at least three times in triplicate.
(§3) Cardiac cell cultures were incubated for 24 h at 37 °C with different concentrations of the compounds (up to 200 µM) diluted in DMEM (without phenol red). Their morphology and spontaneous contractibility were evaluated by light microscopy and then the cellular viability was determined by the PrestoBlue® assay. For this colorimetric bioassay, PrestoBlue® (Invitrogen, Waltham, MA, USA) was added to each well (using a 10:1 medium/dye), the plate was further incubated for 24 h followed by optical density (OD) measurement performed at 570 and 600 nm, as recommended by the manufacturer.

A short description of data set [5]: in vitro. The format is cell-based. To be noted: human. The protocol:
Human hepatocellular carcinoma (HepG2) and Chinese Hamster Ovary (CHO-K1) cells obtained from the American Type Culture Collection (Manassas, VA, USA) were cultured in Eagle’s medium (MEM, Gibco®, Waltham, MA, USA) containing 10% fetal bovine serum (FBS) plus 100 µg/mL streptomycin and 100 µg/mL penicillin at 37 °C in a 5% CO2 atmosphere. Logarithmic-phase cells were used in all the experiments.
Fresh HepG2 and CHO-K1 cells were seeded at a density of 1 × 10^4/well. […] Briefly, after treatment, the culture medium was replaced by 90 μL fresh culture medium and 10 μL WST-1 reagent and incubated at 37 °C and 5% CO2 for 3 h. The absorbance was then measured at 440 nm according to the kit protocol.

Data set [6] concerns HepG2 cells. Kind of data set: In vitro micronuclei assay, HepG2. It counts as cell-based, human. The note with it: human, 3 h. The protocol:
Fresh HepG2 and CHO-K1 cells were seeded at the density of 1 × 10^5 cells/mL into 24-well plates (1 mL/per well). The compounds 13 (a–d) were then added to the medium to final concentrations of 500, 1000 and 2000 µM and incubation continued for 3 h or 24 h. DMSO 10% was used as the negative control, and, BaP (80 µM) for HepG2 and MMC (5 µM) for CHO-K1 were the positive controls. After exposure to the compounds, the cells were incubated for more than 24 h under growth conditions before quantification of the micronuclei and cytotoxicity. The cytogenetic studies were carried out in triplicate as described previously (see [51]). In order to determine the mitotic index and the number of cells with micronuclei, the medium was replaced by a cold methanol-glacial acetic acid (3:1) fixative for 30 min, and the cells then rinsed with distilled water for 2 min and air dried. The fixed cells were stained with 4,6-diamidino-2-phenylindole (DAPI) ([…]) dissolved in McIlvaine buffer (0.1 M citric acid plus 0.2 M Na2HPO4, pH 7.0) for 60 min, washed with McIlvaine buffer for 5 min, briefly rinsed with distilled water and mounted in glycerol. To determine the mitotic index and the number of cells with micronuclei, 1000 cells per well (3000 cells per concentration) were analyzed under a fluorescence microscope. The results for micronuclei were presented as the percentage of cells containing micronuclei in the 3000 cells/concentration group analyzed. Cells that glowed brightly and had homogenous nuclei were considered as having normal phenotypic morphology. Apoptotic nuclei were identified by the condensed chromatin at the periphery of the nuclear membrane or by fragmented nuclear body morphology. Necrotic cells presented chromatin forms with irregularly shaped aggregates, a pyknotic nucleus (shrunken and darkly stained) and cell membrane disruption, with cellular debris spilled into the extracellular milieu. Once again, 3000 cells were counted and the percentage of viable cells was evaluated, discounting apoptotic and necrotic cells. Statistical differences between the groups were analyzed by two-way ANOVA (p < 0.01) and Tukey’s post hoc test.

Data set [7] relates to intracellular forms of T. cruzi (Tulahuen strain transfected with β-galactosidase). Nature of the data set: Activity against intracellular T. cruzi in L929 cells. It counts as cell-based, Trypanosoma cruzi. The note with it: for EC50: Trypanosoma cruzi, L929, intracellular forms, Tulahuen strain, read-out: EC50; for EC50 / 10µM (% of Parasite Lysis): 96 h; for 10µM (% of Parasite Lysis): fixed concentration 10 µM. The protocol:
as §2, with “Then, the compounds were next evaluated using dose–response assays in which Tulahuen-infected-L929 cells were exposed to different non-toxic concentrations of each compound (0–50 µM) and then after 96 h of incubation the same procedure was conducted as above reported.” left out

Data set [8] is described as follows: in vitro. It counts as cell-based. To be noted: mouse. As to the method: as §3
This is another data set of the same source.

Data set [9] relates to intracellular forms of T. cruzi (Tulahuen strain transfected with β-galactosidase). More on the design: method as in PMID 24590476. To be noted: read-out: EC90 value of Bz against intracellular forms of T. cruzi; cited from earlier work.
Setting [10] is: P. falciparum W2 clone, 24 h at 37 °C, read-out: EC50.

The source of these data is paper PMC10301432, “Antiplasmodial, Trypanocidal, and Genotoxicity In Vitro Assessment of New Hybrid α,α-Difluorophenylacetamide-statin Derivatives” (Pharmaceuticals, 2023).

Broadly, the EC50 is the concentration needed to bring the measured effect to its halfway point. Usually CC50 stands for the concentration that lowers cell viability or growth by half. Usually EC90 stands for the point of the concentration-response curve where the effect stands at 90%.

The structures appear in SMILES notation. Counter-ions that a name gives are not always drawn. Like-named read-outs stand apart in the source and are kept apart here.

Consider `CC(=O)Nc1ccc(Br)cc1C(F)(F)C(=O)NCC[C@@H](O)C[C@@H](O)CC(=O)O` [Compound 14d, Sodium (3R,5R)-7-(2-(2-acetamido-5-bromophenyl)-2,2-difluoroacetamide)-3,5-dihydroxyheptanoate salt], for which the EC50 was more than 500 µM in data set [1] and more than 102 µM in [3] (setting [10]). Further, the “Trypanocidal Activity” value in data set [2] was “No”. In addition, in data set [3], the SI result is “Inactive”. The “Antiplasmodial Activity” value in [3] is on record as “No”. For the same molecule, the figures for the CC50 at 24 h in data set [4] and in data set [5] were more than 500 µM and more than 409 µM, respectively.

Take `CC(=O)Nc1ccc(C)cc1C(F)(F)C(=O)NCC[C@@H](O)C[C@@H](O)CC(=O)O` [Compound 14b, Sodium (3R,5R)-7-(2-(2-acetamido-5-methylphenyl)-2,2-difluoroacetamide)-3,5-dihydroxyheptanoate salt]: the EC50 was more than 500 µM in [1] and more than 118 µM in data set [3] (setting [10]). Moreover, the “Trypanocidal Activity” value in data set [2] was “No”. In addition, the SI entry in data set [3] is “Inactive”. Besides, the “Antiplasmodial Activity” value in [3] is “No”. In addition, the figures for the CC50 at 24 h in data set [4] and in data set [5] were more than 500 µM and more than 472 µM, respectively.

As for `CC(=O)Nc1ccccc1C(F)(F)C(=O)NCC[C@@H](O)C[C@@H](O)CC(=O)O` [Compound 14a, Sodium (3R,5R)-7-(2-(2-acetamido-phenyl)-2,2-difluoroacetamide)-3,5-dihydroxyheptanoate salt], the EC50 is more than 500 µM in data set [1] and more than 122 µM in data set [3] (setting [10]). In data set [2], the “Trypanocidal Activity” value was “No”. For the same molecule, the SI result in [3] is recorded as “Inactive”. For the same molecule, in [3], the “Antiplasmodial Activity” value is “No”. For the same molecule, the values for the CC50 at 24 h in data set [4] and in [5] were more than 500 µM and more than 488 µM, respectively.

Regarding `CC(C)c1c(C(=O)Nc2ccccc2)c(-c2ccccc2)c(-c2ccc(F)cc2)n1CC[C@@H](O)C[C@@H](O)CC(=O)O` [AVA, atorvastatin, reference compound], the “cytotoxicity (survival rate) in micronuclei assay” value in data set [6] is listed as “significant cytotoxic effects upon 1000 µM”. The EC50 in data set [1] is 7.07 ± 1.78 µM; in data set [7] it was 45.3 ± 3.06 µM; in data set [3] (setting [10]) it was 10.3 ± 1.2 µM. Besides, the “10µM (% of Parasite Lysis)” value in [7] is 31.73 ± 5.80%.

Consider `CCN(CC)CCCC(C)Nc1ccnc2cc(Cl)ccc12` (stereo not drawn) [Chloroquine, chloroquine, reference compound], for which, in data set [3], the response was half-maximal at 0.59 ± 0.03 µM (EC50).

For the molecule `O=C(Cn1ccnc1[N+](=O)[O-])NCc1ccccc1` [Benznidazole, benznidazole, reference compound], the SI in data set [1] (LC50 (cardiac cells)/EC50 (trypomastigotes)) is more than 77; in data set [7] (LC50 (L929)/EC50 (intracellular forms)), 92.4. Further, the values for the EC50 in data set [1] and in data set [7] were 13 ± 2 µM and 1.83 ± 0.73 µM, respectively. The “10µM (% of Parasite Lysis)” value in data set [7] is listed as 87.84 ± 7.08%. The same molecule returned a CC50 at 96 h in data set [8] of 169 ± 27.2 µM. The CC50 at 24 h in data set [4] was more than 1000 µM. Besides, the EC90 in data set [9] is 10 µM.

In the case of `CC(=O)Nc1ccc(Cl)cc1C(F)(F)C(=O)NCC[C@@H](O)C[C@@H](O)CC(=O)O` [Compound 14c, Sodium (3R,5R)-7-(2-(2-acetamido-5-chlorophenyl)-2,2-difluoroacetamide)-3,5-dihydroxyheptanoate salt], the EC50 in data set [1] was more than 500 µM; in data set [3] (setting [10]), more than 112 µM. In addition, the “Trypanocidal Activity” value in data set [2] was “No”. In data set [3], the SI result is on record as “Inactive”. Moreover, in data set [3], the “Antiplasmodial Activity” value is “No”. Further, the CC50 at 24 h in [4] is more than 500 µM; in data set [5], more than 450 µM.
